Measured values as given in the NIST ThermoML archive (doi:10.1021/je060271a).
Where “and” joins values, the source holds several entries; their conditions need not be identical. Equal values may be shown once.

Conditions: 283.16 K, Liquid, Vibrating tube method

CCCC(=O)OCC(COC(=O)CCC)(COC(=O)CCC)COC(=O)CCC [pentaerythritol tetrabutyrate]
Conditions | mass density
961.7 kPa | 1059.5 kg/m3
999.7 kPa | 1059.6 kg/m3
1040.4 kPa | 1059.6 kg/m3
1083.6 kPa | 1059.5 kg/m3
1139.2 kPa | 1059.6 kg/m3
1188.5 kPa | 1059.7 kg/m3
1241.1 kPa | 1059.6 kg/m3
1292.9 kPa | 1059.7 kg/m3
1371.5 kPa | 1059.9 kg/m3
1415.8 kPa | 1059.8 kg/m3
1495.3 kPa | 1059.8 kg/m3
1575.5 kPa | 1059.9 kg/m3
1654.8 kPa | 1060 kg/m3
1780.7 kPa | 1060 kg/m3
1864.8 kPa | 1060 kg/m3
1998.8 kPa | 1060 kg/m3
2122.7 kPa | 1060.1 kg/m3
2233.6 kPa | 1060.3 kg/m3
2404.2 kPa | 1060.4 kg/m3
2613.1 kPa | 1060.5 kg/m3
2776.8 kPa | 1060.6 kg/m3
2989.2 kPa | 1060.8 kg/m3
3065.6 kPa | 1060.8 kg/m3
3087.4 kPa | 1060.8 kg/m3
3106 kPa | 1060.8 kg/m3
3124.9 kPa | 1060.8 kg/m3
3144.5 kPa | 1060.9 kg/m3
3170 kPa | 1060.8 kg/m3
3189.5 kPa | 1060.9 kg/m3
3209.5 kPa | 1060.9 kg/m3
3233.2 kPa | 1060.9 kg/m3
3253.5 kPa | 1060.9 kg/m3
3273.9 kPa | 1060.9 kg/m3
3294.9 kPa | 1061 kg/m3
3316.1 kPa | 1060.8 kg/m3
3341.2 kPa | 1060.9 kg/m3
3361.8 kPa | 1061 kg/m3
3387.1 kPa | 1061.1 kg/m3
3409.1 kPa | 1061 kg/m3
3431.1 kPa | 1061 kg/m3
3452.8 kPa | 1061 kg/m3
3479 kPa | 1061.1 kg/m3
3502 kPa | 1060.9 kg/m3
3524 kPa | 1061.1 kg/m3
3546.7 kPa | 1061.2 kg/m3
3574.4 kPa | 1061.1 kg/m3
3597.5 kPa | 1061.1 kg/m3
3620.7 kPa | 1061.1 kg/m3
3648.8 kPa | 1061.1 kg/m3
3672.5 kPa | 1061.2 kg/m3
3696.2 kPa | 1061.2 kg/m3
3720.5 kPa | 1061.2 kg/m3
3749.6 kPa | 1061.2 kg/m3
3773 kPa | 1061.2 kg/m3
3845.7 kPa | 1061.3 kg/m3
3868.4 kPa | 1061.3 kg/m3
3891.5 kPa | 1061.4 kg/m3
3914 kPa | 1061.3 kg/m3
3941.5 kPa | 1061.3 kg/m3
3964.7 kPa | 1061.3 kg/m3
3987.6 kPa | 1061.4 kg/m3
4009.4 kPa | 1061.4 kg/m3
4029.8 kPa | 1061.4 kg/m3
4033 kPa | 1061.4 kg/m3
4416.7 kPa | 1061.6 kg/m3
4447.7 kPa | 1061.7 kg/m3
4473.5 kPa | 1061.6 kg/m3
4500 kPa | 1061.6 kg/m3
4526.4 kPa | 1061.8 kg/m3
4559.5 kPa | 1061.7 kg/m3
4586.3 kPa | 1061.8 kg/m3
4619.9 kPa | 1061.7 kg/m3
4643.6 kPa | 1061.7 kg/m3
4676.5 kPa | 1061.6 kg/m3
4704.4 kPa | 1061.8 kg/m3
4732.4 kPa | 1061.8 kg/m3
4765.8 kPa | 1061.8 kg/m3
4794.4 kPa | 1061.8 kg/m3
4823.6 kPa | 1061.8 kg/m3
4858.1 kPa | 1061.8 kg/m3
4887.2 kPa | 1061.9 kg/m3
4916.6 kPa | 1061.9 kg/m3
4946.3 kPa | 1061.9 kg/m3
4983.2 kPa | 1061.9 kg/m3
4995.1 kPa | 1062.1 kg/m3
4995.4 kPa | 1061.9 kg/m3
4997.5 kPa | 1062.1 kg/m3
4999.9 kPa | 1062 kg/m3
5001.3 kPa | 1061.9 kg/m3
5002.4 kPa | 1061.9 kg/m3
5003.4 kPa | 1062 kg/m3
5003.7 kPa | 1062 kg/m3
5004.3 kPa | 1061.9 kg/m3
5004.6 kPa | 1062 kg/m3
5004.8 kPa | 1062 kg/m3
5005 kPa | 1062 kg/m3
5005.3 kPa | 1062.1 kg/m3
5005.5 kPa | 1062 kg/m3
5005.6 kPa | 1062.1 kg/m3 and 1062 kg/m3
5005.8 kPa | 1062 kg/m3
5006 kPa | 1061.8 kg/m3
5006.2 kPa | 1061.9 kg/m3
5006.3 kPa | 1061.9 kg/m3 and 1062 kg/m3
5006.5 kPa | 1062.1 kg/m3 and 1062 kg/m3
5006.7 kPa | 1061.9 kg/m3
5006.9 kPa | 1061.9 kg/m3 and 1062 kg/m3
5007 kPa | 1062.1 kg/m3 and 1062 kg/m3
5007.2 kPa | 1061.9 kg/m3 and 1062.1 kg/m3 and 1062 kg/m3
5007.4 kPa | 1061.9 kg/m3 and 1062 kg/m3
5007.5 kPa | 1062 kg/m3
5007.7 kPa | 1062 kg/m3 and 1061.9 kg/m3
5007.9 kPa | 1062.1 kg/m3 and 1062 kg/m3
5008 kPa | 1062 kg/m3 and 1062.1 kg/m3
5008.1 kPa | 1061.9 kg/m3 and 1062.2 kg/m3 and 1062 kg/m3
5008.2 kPa | 1062 kg/m3 and 1061.9 kg/m3
5008.3 kPa | 1062 kg/m3 and 1061.9 kg/m3
5008.5 kPa | 1062 kg/m3 and 1062.1 kg/m3
5008.6 kPa | 1061.9 kg/m3
5009.4 kPa | 1061.9 kg/m3
5009.6 kPa | 1061.9 kg/m3 and 1062 kg/m3
5009.8 kPa | 1062 kg/m3 and 1061.9 kg/m3
5010 kPa | 1062 kg/m3
5010.1 kPa | 1061.9 kg/m3 and 1062 kg/m3
5010.3 kPa | 1062 kg/m3 and 1062.1 kg/m3 and 1061.9 kg/m3
5010.5 kPa | 1061.9 kg/m3
5010.7 kPa | 1062.1 kg/m3 and 1062 kg/m3
5010.8 kPa | 1062 kg/m3 and 1061.9 kg/m3
5011 kPa | 1062.2 kg/m3
5011.2 kPa | 1062.1 kg/m3 and 1061.9 kg/m3
5011.3 kPa | 1062 kg/m3
5011.7 kPa | 1061.9 kg/m3 and 1062 kg/m3 and 1062.1 kg/m3
5011.9 kPa | 1061.9 kg/m3 and 1062 kg/m3
5012 kPa | 1061.9 kg/m3
5012.2 kPa | 1062 kg/m3 and 1062.1 kg/m3 and 1061.9 kg/m3
5012.4 kPa | 1062 kg/m3 and 1061.9 kg/m3 and 1062.1 kg/m3
5012.6 kPa | 1062 kg/m3 and 1061.9 kg/m3 and 1061.8 kg/m3
5012.7 kPa | 1062 kg/m3
5012.9 kPa | 1062 kg/m3
5013.1 kPa | 1062 kg/m3
5013.8 kPa | 1062 kg/m3
5013.9 kPa | 1062 kg/m3
5017.5 kPa | 1062 kg/m3
5022.8 kPa | 1062 kg/m3
5022.9 kPa | 1062.1 kg/m3
5025.4 kPa | 1062 kg/m3
5025.5 kPa | 1062 kg/m3
